Results published in US6914045B2, “Glycopeptide antibiotics” (Wyeth Holdings Corporation, priority 2001, dated 2005).
≈ marks a conversion by molar mass, not a printed value.

Assays:
Assay in all cases: in vitro antibacterial evaluation, MIC by broth dilution
Format in all cases: cell-based
Escherichia coli = conditions: 18 hours at 35° C.
Summary of the method: (§1)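 Step 1: dilute antibiotic across 64-0.06 μg/mL in Muller-Hinton II […]. Step 2: inoculate at 5×10^5 CFU/mL.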

Enterococcus sp. = conditions: broth dilution, 18 hours at 35° C.
Summary of the method: as §1

Staphylococcus sp. = conditions: broth dilution, 18 hours at 35° C.
Summary of the method: as §1

Streptococcus sp. = conditions: broth dilution, 18 hours at 35° C.
Summary of the method: as §1

CCCCOC(=O)CCC1OCC2OC(OC3C(CO)OC(Oc4ccc(CC5NC(=O)C(C(C)c6ccccc6)NC(=O)CNC(=O)C(CO)NC(=O)C(C(O)C6CNC(=N)N6C6OC(CO)C(O)C(O)C6O)NC(=O)C(C(O)C6CNC(=N)N6)NC5=O)cc4)C(O)C3O)C(O)C(O)C2O1 (stereo not drawn) [Example 114, Cyclo[glycyl-β-methylphenylalanyl-O-[4-O-[4,6-O-(4-butoxy-4-oxobutylidene)hexopyranosyl]-hexopyranosyl]tyrosyl-3-(2-iminoimidazolidin-4-yl)seryl-3-(3-hexopyranosyl-2-iminoimidazolidin-4-yl)serylseryl]]
MIC Escherichia coli (ATCC 25922) (Escherichia coli; strain ATCC 25922): 64 µg/mL (≈ 44.6 µM) | MIC Escherichia coli (GC 4559) (Escherichia coli; strain GC 4559): 64 µg/mL (≈ 44.6 µM) | MIC Escherichia coli (GC 4560) (Escherichia coli; strain GC 4560): 1 µg/mL (≈ 0.697 µM) | MIC Enterococcus avium (GC 4558) (Enterococcus sp.; Enterococcus avium (GC 4558)): 8 µg/mL (≈ 5.57 µM) | MIC Enterococcus faecalis (ATCC 29212) (Enterococcus sp.; Enterococcus faecalis (ATCC 29212)): 4 µg/mL (≈ 2.79 µM) | MIC Enterococcus faecalis (GC 2242) (Enterococcus sp.; Enterococcus faecalis (GC 2242)): 4 µg/mL (≈ 2.79 µM) | MIC Enterococcus faecalis (GC 2691) (Enterococcus sp.; Enterococcus faecalis (GC 2691)): 4 µg/mL (≈ 2.79 µM) | MIC Enterococcus faecalis (GC 3059) (Enterococcus sp.; Enterococcus faecalis (GC 3059)): 8 µg/mL (≈ 5.57 µM) | MIC Enterococcus faecalis (GC 4552) (Enterococcus sp.; Enterococcus faecalis (GC 4552)): 4 µg/mL (≈ 2.79 µM) | MIC Enterococcus faecalis (GC 4553) (Enterococcus sp.; Enterococcus faecalis (GC 4553)): 8 µg/mL (≈ 5.57 µM) | MIC Enterococcus faecalis (GC 4554) (Enterococcus sp.; Enterococcus faecalis (GC 4554)): 4 µg/mL (≈ 2.79 µM) | MIC Enterococcus faecalis (GC 6189) (Enterococcus sp.; Enterococcus faecalis (GC 6189)): 4 µg/mL (≈ 2.79 µM) | MIC Enterococcus faecium (GC 2243) (Enterococcus sp.; Enterococcus faecium (GC 2243)): 4 µg/mL (≈ 2.79 µM) | MIC Enterococcus faecium (GC 4556) (Enterococcus sp.; Enterococcus faecium (GC 4556)): 4 µg/mL (≈ 2.79 µM) | MIC Enterococcus faecium (GC 4557) (Enterococcus sp.; Enterococcus faecium (GC 4557)): 2 µg/mL (≈ 1.39 µM) | MIC Enterococcus faecalis (ATCC 29212) (Enterococcus sp.; strain ATCC 29212): 4 µg/mL (≈ 2.79 µM) | MIC Enterococcus faecalis (GC 2242) (Enterococcus sp.; strain GC 2242): 4 µg/mL (≈ 2.79 µM) | MIC Enterococcus faecium (GC 2243) (Enterococcus sp.; strain GC 2243): 4 µg/mL (≈ 2.79 µM) | MIC Enterococcus faecalis (GC 2691) (Enterococcus sp.; strain GC 2691): 4 µg/mL (≈ 2.79 µM) | MIC Enterococcus faecalis (GC 3059) (Enterococcus sp.; strain GC 3059): 8 µg/mL (≈ 5.57 µM) | MIC Enterococcus faecalis (GC 4552) (Enterococcus sp.; strain GC 4552): 4 µg/mL (≈ 2.79 µM) | MIC Enterococcus faecalis (GC 4553) (Enterococcus sp.; strain GC 4553): 8 µg/mL (≈ 5.57 µM) | MIC Enterococcus faecalis (GC 4554) (Enterococcus sp.; strain GC 4554): 4 µg/mL (≈ 2.79 µM) | MIC Enterococcus faecium (GC 4556) (Enterococcus sp.; strain GC 4556): 4 µg/mL (≈ 2.79 µM) | MIC Enterococcus faecium (GC 4557) (Enterococcus sp.; strain GC 4557): 2 µg/mL (≈ 1.39 µM) | MIC Enterococcus avium (GC 4558) (Enterococcus sp.; strain GC 4558): 8 µg/mL (≈ 5.57 µM) | MIC Enterococcus faecalis (GC 6189) (Enterococcus sp.; strain GC 6189): 4 µg/mL (≈ 2.79 µM) | MIC Coagulase Negative Staphylococcus (GC 4547) (Staphylococcus sp.): 2 µg/mL (≈ 1.39 µM) | MIC Coagulase Negative Staphylococcus (GC 4548) (Staphylococcus sp.): 1 µg/mL (≈ 0.697 µM) | MIC Coagulase Negative Staphylococcus (GC 4549) (Staphylococcus sp.): 2 µg/mL (≈ 1.39 µM) | MIC Coagulase Negative Staphylococcus (GC 4551) (Staphylococcus sp.): 2 µg/mL (≈ 1.39 µM) | MIC Coagulase Negative Staphylococcus (GC 6257) (Staphylococcus sp.): 1 µg/mL (≈ 0.697 µM) | MIC Staphylococcus aureus (ATCC 29213) (Staphylococcus sp.): 2 µg/mL (≈ 1.39 µM) | MIC Staphylococcus aureus (GC 1131) (Staphylococcus sp.): 2 µg/mL (≈ 1.39 µM) | MIC Staphylococcus aureus (GC 3051) (Staphylococcus sp.): 2 µg/mL (≈ 1.39 µM) | MIC Staphylococcus aureus (GC 3053) (Staphylococcus sp.): 2 µg/mL (≈ 1.39 µM) | MIC Staphylococcus aureus (GC 4541) (Staphylococcus sp.): 2 µg/mL (≈ 1.39 µM) | MIC Staphylococcus aureus (GC 4542) (Staphylococcus sp.): 1 µg/mL (≈ 0.697 µM) | MIC Staphylococcus aureus (GC 4544) (Staphylococcus sp.): 2 µg/mL (≈ 1.39 µM) | MIC Staphylococcus aureus (GC 4545) (Staphylococcus sp.): 2 µg/mL (≈ 1.39 µM) | MIC Staphylococcus aureus-SMITH (GC 4543) (Staphylococcus sp.): 2 µg/mL (≈ 1.39 µM) | MIC Staphylococcus haemolyticus (GC 4546) (Staphylococcus sp.): 1 µg/mL (≈ 0.697 µM) | MIC Staphylococcus aureus (GC 1131) (Staphylococcus sp.; inoculum 5×10^5 CFU/mL, strain GC 1131): 2 µg/mL (≈ 1.39 µM) | MIC Staphylococcus aureus (ATCC 29213) (Staphylococcus sp.; strain ATCC 29213): 2 µg/mL (≈ 1.39 µM) | MIC Staphylococcus aureus (GC 3051) (Staphylococcus sp.; strain GC 3051): 2 µg/mL (≈ 1.39 µM) | MIC Staphylococcus aureus (GC 3053) (Staphylococcus sp.; strain GC 3053): 2 µg/mL (≈ 1.39 µM) | MIC Staphylococcus aureus (GC 4541) (Staphylococcus sp.; strain GC 4541): 2 µg/mL (≈ 1.39 µM) | MIC Staphylococcus aureus (GC 4542) (Staphylococcus sp.; strain GC 4542): 1 µg/mL (≈ 0.697 µM) | MIC Staphylococcus aureus (GC 4544) (Staphylococcus sp.; strain GC 4544): 2 µg/mL (≈ 1.39 µM) | MIC Staphylococcus aureus (GC 4545) (Staphylococcus sp.; strain GC 4545): 2 µg/mL (≈ 1.39 µM) | MIC Staphylococcus haemolyticus (GC 4546) (Staphylococcus sp.; strain GC 4546): 1 µg/mL (≈ 0.697 µM) | MIC Coagulase Negative Staphylococcus (GC 4547) (Staphylococcus sp.; strain GC 4547): 2 µg/mL (≈ 1.39 µM) | MIC Coagulase Negative Staphylococcus (GC 4548) (Staphylococcus sp.; strain GC 4548): 1 µg/mL (≈ 0.697 µM) | MIC Coagulase Negative Staphylococcus (GC 4549) (Staphylococcus sp.; strain GC 4549): 2 µg/mL (≈ 1.39 µM) | MIC Coagulase Negative Staphylococcus (GC 4551) (Staphylococcus sp.; strain GC 4551): 2 µg/mL (≈ 1.39 µM) | MIC Coagulase Negative Staphylococcus (GC 6257) (Staphylococcus sp.; strain GC 6257): 1 µg/mL (≈ 0.697 µM) | MIC Staphylococcus aureus-SMITH (GC 4543) (Staphylococcus sp.; strain SMITH GC 4543): 2 µg/mL (≈ 1.39 µM) | MIC Streptococcus agalactiae (GC 4564) (Streptococcus sp.; Streptococcus agalactiae (GC 4564)): 0.5 µg/mL (≈ 0.348 µM) | MIC Streptococcus pneumoniae (ATCC 6301) (Streptococcus sp.; Streptococcus pneumoniae (ATCC 6301)): 0.12 µg/mL (≈ 0.0836 µM) | MIC Streptococcus pneumoniae (GC 1894) (Streptococcus sp.; Streptococcus pneumoniae (GC 1894)): <0.06 µg/mL | MIC Streptococcus pneumoniae (GC 4565) (Streptococcus sp.; Streptococcus pneumoniae (GC 4565)): 0.25 µg/mL (≈ 0.174 µM) | MIC Streptococcus pyogenes (GC 4563) (Streptococcus sp.; Streptococcus pyogenes (GC 4563)): 0.5 µg/mL (≈ 0.348 µM) | MIC Streptococcus pneumoniae (ATCC 6301) (Streptococcus sp.; strain ATCC 6301): 0.12 µg/mL (≈ 0.0836 µM) | MIC Streptococcus pneumoniae (GC 1894) (Streptococcus sp.; strain GC 1894): <0.06 µg/mL | MIC Streptococcus pyogenes (GC 4563) (Streptococcus sp.; strain GC 4563): 0.5 µg/mL (≈ 0.348 µM) | MIC Streptococcus agalactiae (GC 4564) (Streptococcus sp.; strain GC 4564): 0.5 µg/mL (≈ 0.348 µM) | MIC Streptococcus pneumoniae (GC 4565) (Streptococcus sp.; strain GC 4565): 0.25 µg/mL (≈ 0.174 µM)
